Tests used:
A549 cell line = experiment: Viability of A549 cells, XTT-based assay, with or without TRAIL; assay type: cell-based, human
Experimental: FIG. 4: C12 sensitizes long cancer cell line A549 to TRAIL. (A) Viability of cells was examined after 24-hour incubation in media containing TRAIL (50 ng/ml), compound (C12) (1 μM), compound (C12R) (25 μM) or the indicated combination of TRAIL (T) with (C12) or (C12R). The chemical structures of (C12) and its stereoisomer (C12R) are shown on the right. (B) Viability of cells was examined after 24-hour incubation in media, containing TRAIL (50 ng/ml) and the indicated doses of C12. Viable cells remaining after the treatment were determined as a function of mitochondrial activity of living cells according to XTT-based toxicology assay kit (Sigma) and are shown as a percentage of viable untreated cells.
To test this hypothesis, we examined the effect of C12 in vitro on the activity of TRAIL against A549 cell line derived from a cancer sample of the human lung.
Cytotoxicity was determined by using the XTT-based toxicology assay kit (Sigma, St. Louis, Miss.) in accordance with the manufacturer's instructions. For some experiments, to confirm the apoptotic nature of toxicity, cells were analyzed using protocols and instructions of the Annexin V-FITC apoptosis detection kit (Biovision, Mountain View, Calif.). In addition, caspase 3, 8 and 9 activities were determined by colorimetric assays (R&D System), and the data are expressed as fold increases compared to the values of untreated or control-treated cells (n=5).

sXBP1 (UPR) = experiment: sXBP1 generation in mouse lung after administration; assay type: in vivo; settings: administration into mouse lung, FIG. 1F
Excerpt: FIG. 1: C12 induces the UPR in mammalian cells. (A and B). Comparison of the macrophage responsiveness to P. aeruginosa (P.a.), S. typhimurium (S.t), and S. aureus (S.a.). RT-PCR assay of XBP1 (A) and Western blot analysis (B) of p38, its phosphorylated form (p-p38) as well as phosphorylated forms of PERK (p-PERK) and eIF2α (p-eIF2α) in cell extracts after treatment with bacteria are shown. (C) Macrophages were stimulated with P. aeruginosa wild type (wt) or lasI mutant (ΔlasI), and cell extracts (total RNA or total protein) were prepared and analyzed as in (A and B). (D and E) RT-PCR assay of XBP1 or actin in total RNA prepared from macrophages after treatment with compound (C12), i.e., the (S)-enantiomer, or with the (R)-enantiomer (C12R), or the hydrolysis product (C12h) are shown. (F) Total RNA was prepared from lung of mice after inoculation of vehicle (-) or (C12) and analyzed in (D). (G) Chemical structures of compounds (C12), (C12R) and (C12h). Compound (C12) is the (S)-enaniiomer of the compound of formula: […]
Importantly, the similar requirements in the structural integrity of the lactone ring motif were also evident in response to other natural stereoisomer of the AHL family (Table 1). […]

MCF7 cells = experiment: PARP cleavage in breast cancer MCF7 cells (Vector, Bcl-2, CLARP); assay type: cell-based, human; settings: control MCF7, MCF7/Bcl-2 and MCF7/CLARP, FIG. 3B
Experimental: (§1) FIG. 3: Sensitivity of cancerous and non-cancerous cells to apoptosis induced by TNF, C12 or a combination of C12 and TNF. Cells were incubated with TNF, (C12) or a combination of TNF and (C12) as indicated, and the cleavage of PARP (an apoptotic marker) was determined by Western blot. (A and B) Breast cancer MCF-7 cells transfected with control vector (Vector) and vector expressing Bcl-2 or CLARP. (C) HeLa cell line. (D) Normal human bronchial epithelial cells (NHBE).
To further test this hypothesis, we compared sensitivity of breast cancer cell line MCF7 to apoptosis induced by TNF, C12 or their combination. In these experiments we used a control variant of MCF7 (Vector) as well as MCF7 cells stably expressing negative regulators of apoptosis, such as Bcl-2 and CLARP; Bcl-2 is an inhibitor of the intrinsic apoptotic pathway, whereas CLARP inhibits receptor-dependent apoptotic signaling, also called the extrinsic apoptotic pathway. The cells were incubated with TNF, C12 or their combination, and protein extracts were analyzed by Western blot for the cleavage of PARP, a biochemical marker indicative of apoptosis ^26.
Antibodies and Western blot analysis. Anti-eIF2α, phospho-eIF2α[…](p-eIF2α), p38, p-p38 (Thr180/Tyr132), p-RelA (Ser536), p-I κB ? […] Cellular extracts were prepared and analyzed by Western blot assay as previously described.^E3

[1] = tested on: normal human bronchial epithelial cells (NHBE); experiment: PARP cleavage in normal human bronchial epithelial cells; assay type: cell-based; settings: FIG. 3D
Experimental: as §1
Similar experiments were conducted by using normal human bronchial epithelial cells and HeLa cell line as an example of transformed cells. We observed that both HeLa and normal cells were resistant to pro-apoptotic effects of TNF (FIG. 3C and 3D). […] In addition, two stimuli—C12 and TNF—work synergistically against cancerous cells, although normal cells stay intact.
Cancer and normal cell culture. Lung cancer cell line A549 and colon cancer cell line HT29 were purchased from ATCC. Breast cancer cell line MDA-MB-468 was received from J. C. Reed (The Burnham Institute, La Jolla, Calif.). […]
Antibodies and Western blot analysis. […] Cellular extracts were prepared and analyzed by Western blot assay as previously described.^E3

CCCCCCCCCC(=O)CC(=O)N[C@H]1CCOC1=O [Compound 1, N-(3-oxo-dodecanoyl) homoserine lactone]
cell growth and viability, compound alone (A549 cell line; C12 1 μM or 25 μM, C12R 25 μM, no TRAIL): practically unchanged | sensitivity of A549 cells to TRAIL in the presence of compound (A549 cell line; FIG. 8A): comparable increase in sensitivity | cytotoxicity at 0.1 µM (A549 cell line; Homo sapiens, A549, 100 nM of C12 and 50 ng/ml of TRAIL, 24-hours incubation, read-out: cells that lost their viability): > 50% | viability of A549 cells (A549 cell line; combination of TRAIL (50 ng/ml) and C12 (1 μM)): dramatically reduced | generation of sXBP1 in lung (sXBP1 (UPR)): resulted in the generation of sXBP1 | sensitivity to apoptosis (PARP cleavage), compound alone (MCF7 cells): showed sensitivity | apoptosis (PARP cleavage), compound alone and in combination with TNF [1]: showed resistance

Reference: patent US9765061B2, “Trail enhancers for the selective killing of cancer cells” (The Scripps Research Institute, priority 2013, dated 2017)
